Publication PMC10060569 (Frontiers in Pharmacology, 2023)

Target: T1, 20KVIV23/26N-hP2X1R (Homo sapiens, UniProt P51575, L23V/M21V/R20K/V22I)
T1 construct: expressed in transfected cells; host or cells: Xenopus laevis oocytes (cRNA injection)
T1 sequence (P51575 1-399 R20K/M21V/V22I/L23V): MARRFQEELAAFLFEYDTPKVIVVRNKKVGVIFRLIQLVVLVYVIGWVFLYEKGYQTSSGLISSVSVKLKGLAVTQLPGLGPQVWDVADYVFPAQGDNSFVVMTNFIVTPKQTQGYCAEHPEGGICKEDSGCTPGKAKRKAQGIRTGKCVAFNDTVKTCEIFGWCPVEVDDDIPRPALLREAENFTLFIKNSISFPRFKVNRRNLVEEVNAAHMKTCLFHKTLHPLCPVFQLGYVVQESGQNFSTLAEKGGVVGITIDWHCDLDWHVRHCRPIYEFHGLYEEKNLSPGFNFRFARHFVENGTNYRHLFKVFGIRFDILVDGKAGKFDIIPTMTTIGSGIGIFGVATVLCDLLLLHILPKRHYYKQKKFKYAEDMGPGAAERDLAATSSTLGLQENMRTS
Assay: TEVC of ATP-induced currents, hP2X1R mutant in X. laevis oocytes (peak current protocol)
Type: cell-based
Source text: Oocyte expression plasmids encoding the wild-type (wt) and N-terminally His-tagged (His-) fusion constructs of the hP2X2R, hP2X3R, hP2X4R, and hP2X7R, and the mutant His-^20RMVL^23KVIV^23S^26N-hP2X1R, S^15V-rP2X3R, and His-S^15V-hP2X3R were the same as used in previous research ([Hausmann et al., 2006]; [Wolf et al., 2011]; [Hausmann et al., 2014]; [Obrecht et al., 2019]). In most cases, the N-terminal His-tagged variants of P2XRs were used here and in the previous studies to allow biochemical analyses on affinity-purified proteins using the same constructs. Although this was not required for the present study, it allows for better comparability with our previous studies. Capped cRNAs of different P2XRs were already available in the research group or were synthesized as previously described ([Schmalzing et al., 1991]; [Stolz et al., 2015]). cRNA was injected into collagenase-defolliculated X. laevis oocytes in aliquots of 41 nl or 23 nl (see Supplementary Table S1 for the amount of cRNA used for expression of the indicated P2XR) using a Nanoliter 2000 injector (World Precision Instruments, Sarasota, United States of America) as described previously ([Hausmann et al., 2014]; [Stolz et al., 2015]; [Obrecht et al., 2019]). To express the heteromeric hP2X2/3 receptor, cRNAs encoding His-hP2X2R and wt-hP2X3R were coinjected at a ratio (w/w) of 1:6. Oocytes were stored at 19°C in an oocyte ringer solution (ORi^+) containing 90 mM NaCl, 1 mM KCl, 1 mM CaCl2, 1 mM MgCl2, and 10 mM HEPES (Carl Roth, Karlsruhe, Germany) adjusted to pH 7.4 with NaOH and supplemented with 50 μg/ml gentamicin (AppliChem, Darmstadt, Germany). […]
Ion currents mediated by P2X receptors were evoked by the indicated concentration of ATP or α,β-meATP and were recorded 1 or 2 days after cRNA injection at ambient temperature at a holding potential of −60 mV by two-electrode voltage clamp (TEVC) as previously described ([Hausmann et al., 2006]). […]

Compound: O=C(O)Cc1ccccc1Nc1c(Cl)cccc1Cl [Diclofenac, diclofenac]
- reversibility of the inhibitory effect: reversible
- IC50 (1 µM ATP, peak current protocol, X. laevis oocytes): 338 µM
- inhibition at 1000 µM (read-out: Max. inhibition at 1 mM): 86.2%
